This passage reports EC50 results from patent US20250100998A1, “PARP7 INHIBITORS” (Gilead Sciences, Inc., priority 2023, published 2025).

The assay has as its system STAT1 (phosphorylated at Tyr701) in NCI-H1373 cells. Nature of the assay: Phospho-STAT1 (Tyr701) LANCE Ultra TR-FRET detection assay. As to conditions: Homo sapiens, NCI-H1373, 48 h, induction of pSTAT1 in NCI-H1373 cells, 48 hours incubation; normalized to 10 uM positive control and DMSO; 4-parameter fit; read-out: NH1373 pSTAT1 EC50. The format is cell-based. As for the experimental part:
Phospho-STAT1 (Tyr701 LANCE Ultra TR-FRET Detection Assay
LANCE Ultra phospho-STAT1 (Tyr701) kits are designed for the detection of phosphorylated STAT1 in cell lysates using a simple, homogeneous LANCE Ultra sandwich assay (Cat. #TRF4028M). This assay is intended for assessing compound induction of endogenous levels of cellular STAT1 (phosphorylated at Tyr701) in NCI-H1373 cells. The NCI-H1373 cells are cultured in RPMI 1640 media containing 10% heat inactivated FBS, GlutaMAX, 1% Penicillin-Streptomycin. An Echo acoustic liquid handler is used to transfer 60 nanoliters of compound dilutions using the Echo Qualified, 384-well polypropylene microplate clear flat bottom source plates into a Greiner (#781080) cell culture microplate. NCI-H1373 cells are seeded into these compound-spotted culture plates at 30,000 cells/well in a 60 uL volume in growth media. The plates are incubated in a 5% CO2 humidified incubator at 37° C. for 48 hours. […] Briefly, […] of supplemented lysis buffer is added to each well and allowed to shake for 1 hour at 400 rpm. Next, 5 ul of remixed antibody solutions (vol/vol) prepared in detection buffer are added to each well and allowed to incubate at room temperature overnight. After spinning the plate down at 300 rpm for 1 min, the plate is read on an EnVision plate reader set up for Eu3+ Cryptate and fluorescence emission is measured at two different wavelengths (665 nm and 620 nm). The HTRF ratio is then calculated ([…]) for each well to determine the amount of pSTAT1 in the cell lysate, and the data is then normalized to 10 uM (S)-5-((1-(3-oxo-3-(4-(5-(trifluoromethyl)pyrimidin-2-yl)piperazin-1-yl)propoxy)propan-2-yl)amino)-4-(trifluoromethyl)pyridazin-3(2H)-one positive and DMSO negative controls. The values were then plotted as a function of compound concentration and a 4-parameter fit was applied to derive the EC50 values.
A word on the EC50: it is the concentration needed to bring the measured effect to its halfway point. On to `CC(C)(O)c1cnc(-c2cc3c(F)cn(C[C@@H]4CCC[C@H](Oc5cn[nH]c(=O)c5C(F)(F)F)C4)c(=O)c3c(F)c2F)nc1` [Example 48, 4,7,8-trifluoro-6-(5-(2-hydroxypropan-2-yl)pyrimidin-2-yl)-2-(((1R,3S)-3-((6-oxo-5-(trifluoromethyl)-1,6-dihydropyridazin-4-yl)oxy)cyclohexyl)methyl)isoquinolin-1(2H)-one], for which the concentration giving a half-maximal response (EC50) stood at 1.03 nM.
For `O=c1[nH]ncc(N[C@@H]2C[C@H](Cn3ccc4cc(-c5ncc(C(F)(F)F)cn5)c(F)cc4c3=O)CC(F)(F)C2)c1C(F)(F)F` (single isomer, unassigned) [Example 66], the EC50 was 29.2 nM.
For `O=c1[nH]ncc(N[C@H]2CCC[C@@H](Cn3ccc4cc(-c5ncc(F)cn5)c(F)cc4c3=O)C2)c1C(F)(F)F` [Example 12, 7-fluoro-6-(5-fluoropyrimidin-2-yl)-2-(((1R,3S)-3-((6-oxo-5-(trifluoromethyl)-1,6-dihydropyridazin-4-yl)amino)cyclohexyl)methyl)isoquinolin-1(2H)-one] the value was 23.2 nM.
For `O=c1[nH]ncc(N[C@H]2CCC[C@@H](Cn3ccc4cc(-c5nc6n(n5)COCCO6)c(F)cc4c3=O)C2)c1C(F)(F)F` [Example 8, 6-(7,8-dihydro-5H-[1,2,4]triazolo[5,1-b][1,5,3]dioxazepin-2-yl)-7-fluoro-2-(((1R,3S)-3-((6-oxo-5-(trifluoromethyl)-1,6-dihydropyridazin-4-yl)amino)cyclohexyl)methyl)isoquinolin-1(2H)-one] the value was 5.86 nM; for `O=c1[nH]ncc(N[C@H]2CCC[C@@H](Cn3ccc4cc(-c5ncc(-n6cccn6)cn5)c(F)cc4c3=O)C2)c1C(F)(F)F` [Example 1, 7-fluoro-2-[[(1R,3S)-3-[[6-oxo-5-(trifluoromethyl)-1H-pyridazin-4-yl]amino]cyclohexyl]methyl]-6-(5-pyrazol-1-ylpyrimidin-2-yl)isoquinolin-1-one], 6.54 nM; for `N#Cc1cnc(-c2cc3ccn(C[C@@H]4CCC[C@H](Nc5cn[nH]c(=O)c5C(F)(F)F)C4)c(=O)c3c(F)c2F)nc1` [Example 29, 2-(7,8-difluoro-1-oxo-2-(((1R,3S)-3-((6-oxo-5-(trifluoromethyl)-1,6-dihydropyridazin-4-yl)amino)cyclohexyl)methyl)-1,2-dihydroisoquinolin-6-yl)pyrimidine-5-carbonitrile], 1.8 nM.
For `CS(=O)(=O)c1ccc(-c2cc3ccn(C[C@@H]4CCC[C@H](Nc5cn[nH]c(=O)c5C(F)(F)F)C4)c(=O)c3cc2F)nc1` [Example 11, 7-fluoro-6-(5-(methylsulfonyl)pyridin-2-yl)-2-(((1R,3S)-3-((6-oxo-5-(trifluoromethyl)-1,6-dihydropyridazin-4-yl)amino)cyclohexyl)methyl)isoquinolin-1(2H)-one], the 50% effective concentration (EC50) is 13.6 nM.
Turning to `O=c1[nH]ncc(N[C@H]2CCO[C@@H](Cn3ccc4cc(-c5nc6ccccn6n5)c(F)c(F)c4c3=O)C2)c1C(F)(F)F` [Example 65, 7,8-difluoro-2-[[(2R,4S)-4-[[6-oxo-5-(trifluoromethyl)-1H-pyridazin-4-yl]amino]tetrahydropyran-2-yl]methyl]-6-([1,2,4]triazolo[1,5-a]pyridin-2-yl)isoquinolin-1-one1-one], the EC50 came to 20.3 nM.
With `O=c1[nH]ncc(N[C@H]2CCC[C@@H](Cn3ccc4cc(-c5ccc(C(F)F)cn5)c(F)c(F)c4c3=O)C2)c1C(F)(F)F` [Example 19, 6-(5-(difluoromethyl)pyridin-2-yl)-7,8-difluoro-2-(((1R,3S)-3-((6-oxo-5-(trifluoromethyl)-1,6-dihydropyridazin-4-yl)amino)cyclohexyl)methyl)isoquinolin-1(2H)-one], the EC50 was determined as 4.78 nM.
Under `COc1cnc(-c2cc3c(F)cn(C[C@@H]4CCC[C@H](Nc5cn[nH]c(=O)c5C(F)(F)F)C4)c(=O)c3c(F)c2F)nc1` [Example 35, 4,7,8-trifluoro-6-(5-methoxypyrimidin-2-yl)-2-(((1R,3S)-3-((6-oxo-5-(trifluoromethyl)-1,6-dihydropyridazin-4-yl)amino)cyclohexyl)methyl)isoquinolin-1(2H)-one] stands 1.45 nM; under `O=c1[nH]ncc(N[C@H]2CCC[C@@H](Cn3cnc4cc(-c5ncc(OC(F)F)cn5)c(F)cc4c3=O)C2)c1C(F)(F)F` [Example 25, 7-(5-(difluoromethoxy)pyrimidin-2-yl)-6-fluoro-3-(((1R,3S)-3-((6-oxo-5-(trifluoromethyl)-1,6-dihydropyridazin-4-yl)amino)cyclohexyl)methyl)quinazolin-4(3H)-one], 3.78 nM; under `CC(F)(F)c1cnc(-c2cc3ccn(C[C@@H]4CCC[C@H](Nc5cn[nH]c(=O)c5C(F)(F)F)C4)c(=O)c3cc2F)nc1` [Example 4, 6-(5-(1,1-difluoroethyl)pyrimidin-2-yl)-7-fluoro-2-(((1R,3S)-3-((6-oxo-5-(trifluoromethyl)-1,6-dihydropyridazin-4-yl)amino)cyclohexyl)methyl)isoquinolin-1(2H)-one], 2.26 nM.
With `[2H]C([2H])([2H])Oc1cnc(-c2cc3ncn(C[C@@H]4CCC[C@H](Nc5cn[nH]c(=O)c5C(F)(F)F)C4)c(=O)c3cc2F)nc1` [Example 26, 6-fluoro-7-(5-(methoxy-d3)pyrimidin-2-yl)-3-(((1R,3S)-3-((6-oxo-5-(trifluoromethyl)-1,6-dihydropyridazin-4-yl)amino)cyclohexyl)methyl)quinazolin-4(3H)-one], the EC50 stood at 5.63 nM.
Under `COc1cnc(-c2cc3c(cc2F)C(=O)N(C[C@@H]2CCC[C@H](Nc4cn[nH]c(=O)c4C(F)(F)F)C2)CC3)nc1` [Example 70, 7-fluoro-6-(5-methoxypyrimidin-2-yl)-2-(((1R,3S)-3-((6-oxo-5-(trifluoromethyl)-1,6-dihydropyridazin-4-yl)amino)cyclohexyl)methyl)-3,4-dihydroisoquinolin-1(2H)-one] stands 11.1 nM.
As for `O=c1[nH]ncc(N[C@H]2CCC[C@@H](Cn3cc(F)c4cc(-c5ncc(OC(F)(F)F)cn5)c(F)c(F)c4c3=O)C2)c1C(F)(F)F` [Example 44, 4,7,8-trifluoro-2-[[(1R,3S)-3-[[6-oxo-5-(trifluoromethyl)-1H-pyridazin-4-yl]amino]cyclohexyl]methyl]-6-[5-(trifluoromethoxy)pyrimidin-2-yl]isoquinolin-1-one], the EC50 is 4.17 nM.
Under `CC(F)(F)c1cnc(-c2cc3ccn(C[C@@H]4CCC[C@H](Nc5cn[nH]c(=O)c5C(F)(F)F)C4)c(=O)c3c(F)c2F)nc1` [Example 20, 6-(5-(1,1-difluoroethyl)pyrimidin-2-yl)-7,8-difluoro-2-(((1R,3S)-3-((6-oxo-5-(trifluoromethyl)-1,6-dihydropyridazin-4-yl)amino)cyclohexyl)methyl)isoquinolin-1(2H)-one] stands 1.61 nM; under `O=c1[nH]ncc(N[C@H]2CCC[C@@H](Cn3ccc4cc(-c5ncc(OC(F)F)cn5)c(F)c(F)c4c3=O)C2)c1C(F)(F)F` [Example 21, 6-(5-(difluoromethoxy)pyrimidin-2-yl)-7,8-difluoro-2-(((1R,3S)-3-((6-oxo-5-(trifluoromethyl)-1,6-dihydropyridazin-4-yl)amino)cyclohexyl)methyl)isoquinolin-1(2H)-one], 1.52 nM.
Under `CC(F)(F)c1cnc(-c2cc3c(F)cn(C[C@@H]4CCC[C@H](Nc5cn[nH]c(=O)c5C(F)(F)F)C4)c(=O)c3c(F)c2F)nc1` [Example 43] stands 2.6 nM.
For `O=c1[nH]ncc(N[C@H]2C[C@@H](O)C[C@@H](Cn3ccc4cc(-c5ncc(C(F)(F)F)cn5)c(F)cc4c3=O)C2)c1C(F)(F)F` [Example 62, 7-fluoro-2-[[(1S,3S,5R)-3-hydroxy-5-[[6-oxo-5-(trifluoromethyl)-1H-pyridazin-4-yl]amino]cyclohexyl]methyl]-6-[5-(trifluoromethyl)pyrimidin-2-yl]isoquinolin-1-one] the value was 90 nM; for `COc1nc(-c2cc3ccn(C[C@@H]4CCC[C@H](Nc5cn[nH]c(=O)c5C(F)(F)F)C4)c(=O)c3c(F)c2F)ncc1C#N` [Example 22, 2-(7,8-difluoro-1-oxo-2-(((1R,3S)-3-((6-oxo-5-(trifluoromethyl)-1,6-dihydropyridazin-4-yl)amino)cyclohexyl)methyl)-1,2-dihydroisoquinolin-6-yl)-4-methoxypyrimidine-5-carbonitrile], 2.42 nM.
Turning to `O=c1[nH]ncc(N[C@H]2CCC[C@@](O)(Cn3ccc4cc(-c5ncc(C(F)(F)F)cn5)c(F)cc4c3=O)C2)c1C(F)(F)F` [Example 63, 7-fluoro-2-[[(1S,3S)-1-hydroxy-3-[[6-oxo-5-(trifluoromethyl)-1H-pyridazin-4-yl]amino]cyclohexyl]methyl]-6-[5-(trifluoromethyl)pyrimidin-2-yl]isoquinolin-1-one], the 50% effective concentration (EC50) turned out to be 1.87 nM.
